Data reported in article PMC12040169 (PLOS Biology, 2025).

experiment: in vitro; settings: human, hela cells, % viability

Point of comparison: `Oc1ccc(/C=N/Nc2nncc(-c3ccccc3)n2)c(O)c1O` [CBK262492], viability at 28.5 h, 10 µM 80.6%. Against it:
- O=C(O)c1ccc(/C=N/Nc2nc(N3CCOCC3)nc(N3CCOCC3)n2)cc1 [CBK262433] — higher, 99%
- CC1=NN(c2nc(-c3ccc(Br)cc3)cs2)C(=O)C1/N=N/c1ccc(C(=O)O)cc1 (stereo not shown) [CBK262435] — higher, 86.7%
- COc1cc2c(cc1NC(=O)C/C(C)=N/NC(=O)c1ccccc1F)oc1ccccc12 [CBK262437] — higher, 106%
- Cn1c(=O)[nH]c(=O)c2c1nc(N1CCOCC1)n2CC(O)COc1ccc(I)cc1 (stereo not shown) [CBK262438] — higher, 111%
- O=C(O)c1cccc(N2C(=O)C3C(C2=O)C2(c4ccccc4)C(=O)C3(c3ccccc3)C(c3ccccc3)=C2c2ccccc2)c1 (stereo not shown) [CBK262439] — higher, 84.8%
- O=C(O)Cn1cnc(-c2ccc(Br)cc2)c1 [CBK262441] — higher, 111%
- COC(=O)c1ccc2c(c1)[n+](CCO)c(C)n2CCO [CBK262443C] — higher, 88.1%
- CNC(=S)NNC(=O)CN1CCSCC1 [CBK262444] — higher, 88.3%
- N=C(SC1CC(=O)N(c2ccc(C(=O)O)cc2)C1=O)N1N=C(c2ccccc2)CC1c1ccccc1 (stereo not shown) [CBK262446] — higher, 90.9%
- COC(=O)Cn1c(=N)n(CCN2CCOCC2)c2ccccc21 [CBK262447B] — higher, 109%
- O=[N+]([O-])c1ccc(-c2csc(Nc3ccc4c(c3)OCO4)n2)cc1 [CBK262448B] — higher, 100%
- O=C(NC(c1ccccc1)c1ccccc1)c1ccc(Cl)cc1[N+](=O)[O-] [CBK262452] — higher, 84.1%
- CCN(CC)CCNc1nc2cc(Cl)ccc2[nH]1 [CBK262453] — higher, 102%
- COc1cc(/C=N/NC(=O)c2ccncc2)ccc1OCc1ccc(Cl)cc1 [CBK262454] — higher, 114%
- COc1ccc(C(=O)Nc2ccc(C(C)=O)cc2)cc1[N+](=O)[O-] [CBK262457] — higher, 90.8%
- CC(/C=C/c1ccc(N(C)C)cc1)=N\NC(=N)SC1CC(=O)N(c2ccc(C(=O)O)cc2)C1=O (stereo not shown) [CBK262460] — higher, 91.6%
- O=C(N/N=C/c1c[nH]nc1-c1ccccc1)c1cccnc1 [CBK262461] — higher, 101%
- NS(=O)(=O)c1ccc(CNC2CC(=O)N(CCc3ccccc3)C2=O)cc1 (stereo not shown) [CBK262464] — higher, 91.7%
- COc1cc(NS(=O)(=O)c2ccc(NC(=O)c3cccc4ccccc34)cc2)nc(OC)n1 [CBK262465] — higher, 96.6%
- Cc1cc(C(=O)NCCCN(C)C)ccc1[N+](=O)[O-] [CBK262467] — higher, 90.8%
- Oc1cccc(/C=N/Nc2nncc(-c3ccccc3)n2)c1 [CBK262468] — higher, 86.6%
- N=c1n(Cc2ccccc2)c2ccccc2n1CC(O)COc1ccc(Cl)cc1 (stereo not shown) [CBK262469C] — higher, 94.4%
- O=C(CN(c1cccc(Cl)c1)S(=O)(=O)c1ccccc1)NN=C1CCCCC1 [CBK262470] — higher, 114%
- Cc1cc([N+](=O)[O-])cc2c1NC(=O)C2(O)N1CCOCC1 (stereo not shown) [CBK262475] — higher, 91.7%
- C=CCn1c(=O)c(C(=O)NCCCO)c(O)c2ccccc21 [CBK262481] — higher, 83.9%
- COc1cc(/C=C(\C#N)c2nn(-c3ccccc3)c(N)c2C#N)ccc1Oc1ccc(C(F)(F)F)cc1[N+](=O)[O-] [CBK262484] — higher, 92.7%
- NC(=O)c1c(NC(=O)c2ccc(S(=O)(=O)N3CCCC3)cc2)sc2c1CCCC2 [CBK262486] — higher, 106%
- CCC(=O)c1c(-c2ccccc2)nc2n(C)c3ccccc3n12 [CBK262488] — lower, 69.9%
- Cc1ccc(C)c(Nc2nc3nonc3nc2N2CCOCC2)c1 [CBK262491] — higher, 88.8%
- O=C(N/N=C/c1ccc(N2N=C(c3ccc(Cl)cc3)CC2c2ccc(Cl)cc2)cc1)c1cccnc1 (stereo not shown) [CBK262494] — higher, 103%
- CCN(CC)CC(O)Cn1c(-c2ccccc2Cl)nc2ccccc21 (stereo not shown) [CBK262495] — higher, 96.3%

same assay, conditions: human, hela cells, % viability, bulk resorufin, single well

Point of comparison: `CN(C)Cc1c(O)[nH]c(=S)[nH]c1=O` [CBK262474], viability at 28.5 h, 10 µM 92.6%. Against it:
- O=c1[nH]c(=S)[nH]c(O)c1CN1CCOCC1 [CBK262493] — higher, 98.7%
